Reference: ChEMBL document CHEMBL1201862, “PubChem BioAssay data set” (2004)
The source made the active and inactive calls.

Columns and labels:
[1] = target: Eukaryotic translation initiation factor 4E (Mus musculus, UniProt P63073); experiment: blockers of eIF4G binding by eIF4E – biochemical, TR-FRET, dose response (AID 855); type: functional;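 note: potency for disrupting eIF4E binding to eIF4GI seen as loss of FRET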
[2] = target: T1, Polyadenylate-binding protein 1 (Homo sapiens, UniProt P11940); experiment: MLLE domain peptide-binding blockers, IC50 – biochemical, fluorescence polarization, FITC-PAM2 peptide, dose response (AID 602259); type: functional; conditions: read-out: IC50_Mean
[3] = target: T1, Polyadenylate-binding protein 1; experiment: MLLE binding blockers, Cy5 peptide tracer – biochemical, fluorescence polarization, Cy5-PAM2 peptide, secondary, miRNA deadenylation inhibitor project, dose response (AID 602260); type: functional; conditions: read-out: IC50_Mean
[4] = target: T2, Calpain-2 catalytic subunit (Sus scrofa, UniProt P43367); experiment: m-calpain protease blockers, concentration series – biochemical, fluorogenic peptide substrate, dose response (AID 1420); type: functional
T2 sequence (P43367 whole entry): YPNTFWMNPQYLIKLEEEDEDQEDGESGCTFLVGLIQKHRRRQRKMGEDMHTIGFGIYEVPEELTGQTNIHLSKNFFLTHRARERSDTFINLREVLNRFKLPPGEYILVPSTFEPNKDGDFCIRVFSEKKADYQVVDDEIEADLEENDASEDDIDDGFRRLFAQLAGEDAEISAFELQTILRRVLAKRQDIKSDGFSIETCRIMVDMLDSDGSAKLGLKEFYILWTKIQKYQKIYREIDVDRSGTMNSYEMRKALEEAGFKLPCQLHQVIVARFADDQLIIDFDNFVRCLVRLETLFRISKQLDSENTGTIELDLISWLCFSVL

[5] = blockers of HIV-1 envelope-mediated cell-cell fusion – cherry-pick, dose response (AID 652057); type: functional, cell-based
[6] = off-target signal loss in HeLa-CEM21 co-culture – HeLa F-luc CTL cells, cherry-picked, counter-screen for HIV-1 Env fusion inhibitor project, dose response (AID 652040); type: functional, cell-based;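 note: potency for signal decrease marking cytotoxic or nonspecific inhibition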
[7] = HIV-1 AD8 envelope cell-cell fusion blockers – cherry-pick, dose response (AID 652062); type: functional, cell-based;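 note: luciferase signal from cell-cell fusion driven by HIV-1 clade B AD8 Env; potency is for inhibitors of fusion seen as a drop in luminescence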
[8] = blockers of HIV-1 ZM109 envelope-driven cell-cell fusion – HeLa effector, CEM target cells, luciferase, cherry-pick, dose response (AID 652058); type: functional, cell-based;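 note: luciferase signal from HIV-1 Env mediated cell-cell fusion of effector and target cells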
[9] = target: T3, Zinc finger protein mex-5 (Caenorhabditis elegans, UniProt Q9XUB2); experiment: potency of MEX-5 RNA-binding blockers – biochemical, C. elegans, fluorescence polarization, dose response (AID 1960)
T3 sequence (Q9XUB2 whole entry): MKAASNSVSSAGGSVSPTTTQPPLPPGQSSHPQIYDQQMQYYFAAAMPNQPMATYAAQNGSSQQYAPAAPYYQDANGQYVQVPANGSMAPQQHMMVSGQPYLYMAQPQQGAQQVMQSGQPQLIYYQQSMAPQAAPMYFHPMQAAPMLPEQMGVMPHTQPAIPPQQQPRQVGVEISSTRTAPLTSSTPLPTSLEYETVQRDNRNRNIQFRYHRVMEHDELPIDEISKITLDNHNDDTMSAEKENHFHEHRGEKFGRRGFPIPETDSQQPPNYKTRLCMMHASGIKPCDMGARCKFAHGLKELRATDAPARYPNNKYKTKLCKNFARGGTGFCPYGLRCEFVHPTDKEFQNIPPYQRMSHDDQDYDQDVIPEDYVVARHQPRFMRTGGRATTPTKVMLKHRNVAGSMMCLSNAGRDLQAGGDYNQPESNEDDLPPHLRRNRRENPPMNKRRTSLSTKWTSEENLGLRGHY

[10] = target: T4, RNA-binding protein pos-1 (Caenorhabditis elegans, UniProt G5EF15); experiment: disruptors of C. elegans POS-1 RNA interaction – biochemical, fluorescence polarization, dose response (AID 1964);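 note: purified POS-1 fused to maltose binding protein made in E. coli; potency of compounds blocking POS-1 binding to fluorescent RNA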
T4 sequence (G5EF15 whole entry): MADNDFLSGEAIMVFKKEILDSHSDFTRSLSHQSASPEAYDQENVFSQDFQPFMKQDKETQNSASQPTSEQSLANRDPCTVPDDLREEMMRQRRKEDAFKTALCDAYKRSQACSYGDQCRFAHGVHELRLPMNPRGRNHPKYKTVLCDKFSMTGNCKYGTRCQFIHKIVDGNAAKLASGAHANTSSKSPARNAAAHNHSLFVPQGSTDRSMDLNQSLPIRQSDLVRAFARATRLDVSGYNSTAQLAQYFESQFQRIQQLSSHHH

[11] = target: Induced myeloid leukemia cell differentiation protein Mcl-1 (Homo sapiens, UniProt Q07820); type: functional
[12] = target: T5, Rac GTPase-activating protein 1 (Homo sapiens, UniProt Q9H0H5); experiment: blockers of MgcRacGAP-driven Rac1 GTP hydrolysis – biochemical, ADP Hunter fluorescence, primary and confirmatory, confirmation (AID 624330); type: functional
T5 sequence (Q9H0H5 whole entry): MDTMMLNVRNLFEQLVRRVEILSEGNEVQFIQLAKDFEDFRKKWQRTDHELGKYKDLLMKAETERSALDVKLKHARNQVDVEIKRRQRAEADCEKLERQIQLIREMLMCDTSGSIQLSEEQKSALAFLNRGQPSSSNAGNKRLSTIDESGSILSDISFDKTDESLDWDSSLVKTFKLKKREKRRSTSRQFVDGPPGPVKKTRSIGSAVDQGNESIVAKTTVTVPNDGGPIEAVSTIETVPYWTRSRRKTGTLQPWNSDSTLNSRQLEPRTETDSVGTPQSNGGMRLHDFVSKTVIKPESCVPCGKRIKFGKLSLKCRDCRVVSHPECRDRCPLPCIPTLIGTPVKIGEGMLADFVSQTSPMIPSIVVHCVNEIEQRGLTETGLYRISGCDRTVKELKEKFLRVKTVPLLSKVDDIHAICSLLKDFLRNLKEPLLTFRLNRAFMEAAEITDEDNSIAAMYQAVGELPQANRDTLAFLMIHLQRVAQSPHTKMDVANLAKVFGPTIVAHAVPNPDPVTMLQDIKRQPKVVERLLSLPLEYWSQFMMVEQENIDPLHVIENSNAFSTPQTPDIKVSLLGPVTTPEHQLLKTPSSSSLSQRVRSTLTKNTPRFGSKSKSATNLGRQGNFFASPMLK

[13] = Trypanosoma cruzi growth suppression in host cells – NIH3T3 host cells, beta-gal luminescence, confirmation (AID 2044); type: functional, cell-based;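 note: intracellular parasites grown in NIH/3T3 mouse fibroblasts as host cells; luminescent beta-galactosidase reporter signal from transgenic T. cruzi replicating inside host cells; inhibitors lower the luminescence signal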
[14] = NIH3T3 cell viability loss – ATP luminescence, mouse fibroblasts, counter-screen, dose response (AID 2010); type: functional, cell-based;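 note: cells exposed to compound for about 90 hours before reading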
[15] = target: Nonstructural protein 1 (Influenza A virus, UniProt Q194T2); type: functional, Influenza A virus (A/California/07/2009(H1N1))
[16] = fluconazole-exposed Candida albicans growth modulators – fluorescence, retest, confirmation (AID 2467); type: functional, cell-based
[17] = NIH-3T3 fibroblast cytotoxicity, dose response, cytotoxicity control, cell-based, fluorescence, Alamar Blue, secondary assay (AID 2327); type: functional;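 note: NIH-3T3 mouse fibroblasts cultured with fluconazole at 8 µg/mL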
[18] = target: T6, Protein skinhead-1 (Caenorhabditis elegans, UniProt P34707); type: functional
T6 sequence (P34707 whole entry): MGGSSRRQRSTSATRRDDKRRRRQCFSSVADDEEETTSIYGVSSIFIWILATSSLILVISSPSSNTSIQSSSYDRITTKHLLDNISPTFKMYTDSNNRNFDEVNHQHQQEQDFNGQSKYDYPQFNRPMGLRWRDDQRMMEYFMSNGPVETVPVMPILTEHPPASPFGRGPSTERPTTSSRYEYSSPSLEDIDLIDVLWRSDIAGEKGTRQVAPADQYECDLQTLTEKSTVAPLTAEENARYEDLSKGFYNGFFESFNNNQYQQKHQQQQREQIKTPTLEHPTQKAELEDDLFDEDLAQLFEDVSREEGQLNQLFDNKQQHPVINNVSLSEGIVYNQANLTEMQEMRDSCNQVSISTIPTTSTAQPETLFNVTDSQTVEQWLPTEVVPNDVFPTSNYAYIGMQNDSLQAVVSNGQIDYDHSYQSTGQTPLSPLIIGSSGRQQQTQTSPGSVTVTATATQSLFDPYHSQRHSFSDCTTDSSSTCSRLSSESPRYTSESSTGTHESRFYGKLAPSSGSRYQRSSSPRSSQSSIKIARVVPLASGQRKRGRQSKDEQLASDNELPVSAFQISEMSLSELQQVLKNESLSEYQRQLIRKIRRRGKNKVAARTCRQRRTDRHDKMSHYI

[19] = target: T7, Ubiquitin-conjugating enzyme E2 N (Homo sapiens, UniProt P61088); type: functional;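 note: Dose-response confirmation in a TR-FRET assay detecting UBC13-driven polyubiquitin chain formation, inhibition measured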
T7 sequence (P61088 whole entry): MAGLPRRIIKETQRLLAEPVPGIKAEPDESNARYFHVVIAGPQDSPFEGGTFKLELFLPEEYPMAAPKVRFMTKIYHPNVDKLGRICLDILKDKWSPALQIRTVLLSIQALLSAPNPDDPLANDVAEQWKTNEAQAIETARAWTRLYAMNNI

T1 sequence (P11940 whole entry, the tested form may be a part): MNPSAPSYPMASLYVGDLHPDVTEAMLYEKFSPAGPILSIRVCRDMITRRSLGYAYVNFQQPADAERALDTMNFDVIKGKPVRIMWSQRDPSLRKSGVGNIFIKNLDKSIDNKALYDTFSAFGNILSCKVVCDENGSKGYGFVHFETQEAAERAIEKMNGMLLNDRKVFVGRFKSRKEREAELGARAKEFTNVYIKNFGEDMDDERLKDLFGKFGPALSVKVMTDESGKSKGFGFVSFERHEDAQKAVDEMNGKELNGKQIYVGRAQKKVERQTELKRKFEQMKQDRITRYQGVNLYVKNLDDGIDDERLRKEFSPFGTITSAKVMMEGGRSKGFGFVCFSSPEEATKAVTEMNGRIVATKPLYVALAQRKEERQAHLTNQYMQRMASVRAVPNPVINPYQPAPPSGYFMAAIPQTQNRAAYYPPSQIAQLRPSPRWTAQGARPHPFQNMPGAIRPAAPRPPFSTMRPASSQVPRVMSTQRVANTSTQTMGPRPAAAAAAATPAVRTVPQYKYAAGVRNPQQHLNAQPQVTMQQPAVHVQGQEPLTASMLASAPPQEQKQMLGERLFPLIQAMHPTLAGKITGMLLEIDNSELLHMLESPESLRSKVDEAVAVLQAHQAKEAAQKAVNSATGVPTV
Eukaryotic translation initiation factor 4E, sequence (P63073 whole entry, the tested form may be a part): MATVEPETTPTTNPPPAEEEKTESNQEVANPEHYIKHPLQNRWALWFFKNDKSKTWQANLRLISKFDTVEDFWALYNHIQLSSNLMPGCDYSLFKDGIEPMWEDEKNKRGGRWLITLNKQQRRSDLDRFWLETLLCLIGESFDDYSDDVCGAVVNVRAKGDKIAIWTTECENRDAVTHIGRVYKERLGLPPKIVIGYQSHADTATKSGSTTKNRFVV
Nonstructural protein 1, sequence (Q194T2 whole entry): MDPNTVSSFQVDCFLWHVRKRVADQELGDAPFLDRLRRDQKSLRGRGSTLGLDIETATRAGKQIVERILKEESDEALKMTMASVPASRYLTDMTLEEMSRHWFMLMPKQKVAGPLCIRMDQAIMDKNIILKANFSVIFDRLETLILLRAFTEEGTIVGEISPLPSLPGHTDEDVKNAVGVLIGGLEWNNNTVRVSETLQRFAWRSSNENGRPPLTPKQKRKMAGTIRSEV
Induced myeloid leukemia cell differentiation protein Mcl-1, sequence (Q07820 whole entry): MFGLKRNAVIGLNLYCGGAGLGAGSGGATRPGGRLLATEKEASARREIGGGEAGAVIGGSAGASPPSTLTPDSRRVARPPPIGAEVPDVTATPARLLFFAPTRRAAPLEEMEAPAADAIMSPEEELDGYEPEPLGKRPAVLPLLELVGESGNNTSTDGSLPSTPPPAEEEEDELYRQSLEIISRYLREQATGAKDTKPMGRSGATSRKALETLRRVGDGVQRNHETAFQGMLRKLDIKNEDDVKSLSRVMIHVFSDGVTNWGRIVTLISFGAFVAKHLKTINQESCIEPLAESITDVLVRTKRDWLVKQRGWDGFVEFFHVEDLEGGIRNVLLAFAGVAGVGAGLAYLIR

Compound: CCOc1cc(C(=O)Nc2ccc3c4c(cccc24)C(=O)N3CC)cc(OCC)c1OCC
- IC50 [1]: > 64 µM (inactive)

Compound: CCOC(=S)SCc1cn2cccc(C)c2n1
- IC50 [2]: > 66 µM (inactive)
- IC50 [3]: > 66 µM (inactive)

Compound: CCCC(=O)n1nc(NCc2ccc(OC)cc2)nc1NCc1ccc(OC)cc1
- IC50 [4]: < 0.4 µM (not active)

Compound: CN(C)C(=O)CCC(=O)N1CCCC(C(=O)c2ccc3c4c(cccc24)CC3)C1 (stereo unspecified)
- AC50 [5]: 0.498 µM (active)
- AC50 [6]: 0.753 µM (active)
- AC50 [7]: 2.71 µM (active)
- AC50 [8]: 0.53 µM (active)

Compound: CC1CCN(c2nc3ccccc3n2CC(=O)c2ccccc2)CC1
- IC50 [4]: > 50 µM (not active)

Compound: Cc1cc(C)n2nc(C(=O)NCc3ccccc3)cc2n1
- IC50 [1]: > 64 µM (inactive)

Compound: COc1cccc(C2C(C#N)=C(N)OC3=C2C(=O)CCC3)c1OC(=O)c1ccco1 (stereo unspecified)
- EC50 [9]: > 300 µM (not active)
- EC50 [10]: > 300 µM (not active)

Compound: N#Cc1c(NC(=O)c2cccc(S(=O)(=O)Nc3ccc(C(=O)O)cc3)c2)sc2c1CCCC2
- IC50 [11]: 6.52 µM (active)
- IC50 [4]: 13.7 µM (not active)

Compound: CN=C(S)SCCOc1ccccc1
- IC50 [2]: > 66 µM (inactive)
- IC50 [3]: > 66 µM (inactive)

Compound: Nc1ccc(N(c2ccccc2)c2ccc(N)cc2)cc1
- IC50 [12]: 8.57 µM (active)
- EC50 [13]: 1.81 µM (active)
- EC50 [14]: > 60 µM (not active)
- IC50 [1]: > 64 µM (inactive)
- IC50 [15]: 9.26 µM (active)

Compound: O=C(N/N=C/c1sc(N2CCOCC2)nc1-c1ccccc1)c1cccc(S(=O)(=O)N2CCOCC2)c1
- EC50 [16]: > 38 µM (not active)
- AC50 [5]: 4.02 µM (active)
- EC50 [17]: > 150 µM (inactive)
- AC50 [6]: 6.84 µM (active)
- AC50 [7]: 3.47 µM (active)
- AC50 [8]: 4.42 µM (active)

Compound: CCN(CC)c1ccc(/N=C/c2c(C)[nH]c3ccccc23)cc1
- IC50 [12]: 43.7 µM (active)
- IC50 [1]: > 64 µM (inactive)
- IC50 [15]: 29.3 µM (active)

Compound: CCCCCCSc1nnc(-c2cnn(-c3ccccc3)c2-n2cccc2)n1C
- IC50 [4]: 7.59 µM (not active)

Compound: Cc1cc2cc(CNC(=O)Nc3ccccc3)ccc2n1C
- IC50 [2]: > 66 µM (inactive)
- IC50 [3]: > 66 µM (inactive)
- IC50 [18]: > 100 µM (inactive)

Compound: CC1=CC2=NC(=O)CC(C)(C(=O)N(CC(=O)NC3CCCC3)c3cc(C)cc(C)c3)N2C=C1 (stereo unspecified)
- IC50 [1]: 50 µM (inactive)

Compound: COc1ccc(C(=S)N2CCC(C(N)=O)CC2)cc1Br
- IC50 [2]: > 66 µM (inactive)
- IC50 [3]: > 66 µM (inactive)

Compound: COc1ccc(-c2cc(C3CCN(c4cc(Cl)nc(N)n4)CC3)[nH]n2)cc1
- IC50 [19]: > 20 µM (inactive)
- AC50 [5]: 42.9 µM (active)
- AC50 [7]: 26.4 µM (active)
- AC50 [8]: 0.295 µM (active)

Compound: COc1ccc2c(c1)OC[C@H]1[C@H]2N2C(=O)CN(Cc3ccc(C)cc3)C(=O)[C@@]2(C)[C@H]1c1ccccc1
- AC50 [5]: 7.77 µM (active)
- AC50 [6]: 26.9 µM (active)
- AC50 [7]: 5.83 µM (active)
- AC50 [8]: 15.5 µM (active)

Compound: CN1C(=O)C(=Cc2ccc(SC3CCCCC3)o2)C(=O)N(C)C1=O
- EC50 [9]: > 300 µM (not active)
- EC50 [10]: > 300 µM (not active)

Compound: CC(=O)N1CCN(c2ccc(NC(=S)NC(=O)COc3ccc(C(C)(C)C)cc3)cc2)CC1
- IC50 [2]: > 66 µM (inactive)
- IC50 [3]: > 66 µM (inactive)

Compound: CC1CC1C(=O)OCC(=O)Nc1ccccc1Oc1ccccc1 (stereo unspecified)
- IC50 [4]: 33.3 µM (not active)

Compound: O=C(Cn1nc(-c2ccc3c(c2)OCCO3)ccc1=O)Nc1cccc(NC(=O)c2ccccn2)c1
- IC50 [4]: > 50 µM (not active)

Compound: CC1CCCCN1C(=O)Cn1nnc(-c2cccnc2)n1 (stereo unspecified)
- IC50 [2]: 17 µM (active)
- IC50 [3]: > 66 µM (inactive)

Compound: COc1ccc(CCNC(=O)c2nn(C)c3c2CS(=O)(=O)c2ccccc2-3)cc1OC
- EC50 [9]: > 300 µM (not active)
- EC50 [10]: > 300 µM (not active)

Compound: Cc1cccc(NC(=O)NCc2ccc3[nH]c(C)cc3c2)c1
- IC50 [4]: 7.26 µM (not active)
